Measurements: US20120058133A1, “INHIBITION OF TRNA SYNTHETASES AND THERAPEUTIC APPLICATIONS THEREOF” (President and Fellows of Harvard College, priority 2009, published 2012)

Experiments:
luciferase = assay: Standard luciferase assay; format: biochemical; conditions: not shown
[1] = test system: murine CD4+ CD25− T cells, CD8+ T cells, B cells; assay: T and B cell activation, proliferation, cytokine production and Th1/Th2/iTreg differentiation; format: cell-based, mouse
Protocol: FIG. 2A, Left, is a graph showing dose response analyses performed on activated carboxyfluorescein succinimidyl ester (CFSE)-labeled CD4^+CD25^− T cells in the presence of DMSO, 40 nM MAZ1310, or increasing concentrations of halofuginone (HF) (1.25-40 nM). CFSE dilution and cell surface CD25 expression were determined 48 hours after activation. Intracellular cytokine production was determined on day 4 or 5 following restimulation with phorbol myristate acetate (PMA) and ionomycin. […] FIG. 2A, Right is a graph showing dose-response analyses of HF effects on CD8^+ T cell or B cell function. Cells were activated in the presence of DMSO, 40 nM MAZ1310, or increasing concentrations of HF (1.25-40 nM). CFSE dilution, cell surface CD25 expression, and intracellular cytokine production were determined as above 2-5 days after activation.
At approximately 10-fold higher concentrations (>20 nM), HF induced a general inhibition of T and B cell activation, proliferation, and effector function (FIG. 2A, 2B).
Purified CD4^+ CD25^− T cells were activated in vitro as previously described (Djuretic et al., Nat. Immunol. 8:145, 2007) using 0.3 μg/ml hamster anti-mouse CD3 (clone 145-2C11) (ATCC—Manassas, Va.) and 0.5 μg/ml hamster anti-mouse CD28 (BD Pharmingen—San Jose, Calif.). Activated cell cultures were differentiated using the following combinations of cytokines and antibodies: iTreg-recombinant human TGFβ1 (3 ng/ml—R&D systems, Minneapolis, Minn.), Th17-TGFβ1 (3 ng/ml) plus recombinant mouse IL-6 (30 ng/ml—R&D systems). Th1 and Th2 differentiation was performed as previously described (Djuretic et al., Nat. Immunol. 8:145, 2007). Human IL-2 supernatant (National Cancer Institute) was used in culture at 0.01 U/ml and was added at 48 hours-post activation when T cells were split into tissue culture wells lacking CD3 and CD28 antibodies, with the exception of Th17 cultures that were maintained in the absence of exogenous IL-2. CD8^+ T cells were activated with 1 μg/ml anti-CD3 and 1 μg/ml anti-CD28 and were expanded in 0.1 U/ml IL-2 until day 6 post activation. CD43-depleted B cells were activated in vitro by culturing with 25 μg/ml LPS (Sigma—St. Louis, Mo.) for 3-4 days in the presence or absence of TGFβ. All reagents (see below) were added at the time of T cell activation and again at 48 hours post activation unless indicated otherwise. For some experiments, purified CD4^+ CD25^− T cells, CD8^+ T cells or B cells were labeled with 1 μM CFSE (Invitrogen) prior to activation in accordance with manufacturer's instructions. Human T cell activation was performed by plating purified monocytes in a 96-well flat bottom plate at a concentration of 2×10^4 cells per well in complete medium overnight. 10^5 purified human memory T cells were added to monocyte cultures in the presence of soluble anti-CD3/anti-CD28 beads (Dynabeads, Invitrogen). T cells were expanded in the presence HF or MAZ1310 for up to 6 days.
Cytokines secreted into media supernatant were measured using the mouse Th1/Th2 cytometric bead array (CBA—BD Pharmingen) in accordance with manufacturers instructions. Briefly, CD4+ CD25− T cells were activated in anti-CD3/anti-CD28-coated tissue culture wells (see above) and supernatants were collected at the indicated times.
For detection of intracellular cytokines in murine cells, cultured T or B cells were stimulated with 10 nM PMA (Sigma) and […] (Sigma) for 4-5 hours in the presence of […] brefeldin A (Sigma). Stimulated cells were harvested, washed with PBS and fixed with PBS plus 4% paraformaldehyde at room temperature for 20 minutes. Cells were then washed with PBS, permeabilized with PBS supplemented with 1% BSA and 0.5% saponin (Sigma) at room temperature for 10 minutes before cytokine-specific antibodies were added and incubated with cells for an additional 20 minutes at room temperature. […]

Smad2 phosphorylation = assay: TGFβ-stimulated Smad2 phosphorylation in fibroblasts; format: cell-based, mouse
Protocol: FIG. 30. Proline addition to fibroblasts rescues HF-inhibition of TGFβ Signaling. MEFs were treated with HF for 12 hours in the presence or absence of 2 mM proline, treated with 2 ng/mL TGFβ for 1 hour, and assayed for total Smad2 or pSmad2 by Western blot. Total and pSmad2 levels were quantitated using Image J software (bottom panel). Data are representative of three separate experiments.
FIG. 31. HF Dose response for pGCN2-induction and pSmad2-inhibition. Fibroblasts were treated for 12 hours with the indicated dose of HF and analyzed for Smad2 or GCN2 phosphorylation by Western blot. Data are representative of three separate experiments.
FIG. 32. pSmad2 inhibition by HF develops slowly over time. Fibroblasts were treated for the indicated time with 20 nM HF, then treated for 1 hr with 2 ng/mL TGFβ and analyzed for phosphorylation of Smad2 or GCN2 by Western blot. Data are representative of three separate experiments. Bottom panel: Western data in top panel were quantitated using Image J software.

[2] = low concentrations of HF (1-10 nM)

Compound | direct effect on luciferase activity (luciferase) | concentration inducing general inhibition of T and B cell activation, proliferation, and effector function [1] [nM] | CD25 upregulation [1, 2] | T cell proliferation [1, 2] | production of IL-2, TNF, or IFNγ [1, 2] | Th1, Th2 or iTreg differentiation (IFNγ, IL-4, or Foxp3 expression) ([1]; low-dose HF) | time course of Smad2 inhibition versus GCN2 phosphorylation (Smad2 phosphorylation; 20 nM HF) | reversal of Smad2 phosphorylation inhibition by proline (Smad2 phosphorylation; 2 mM proline) | TGF-beta-stimulated Smad2 phosphorylation (Smad2 phosphorylation; 12 hours HF, same dose range as GCN2 phosphorylation) | Th1 and Th2 differentiation ([1]; low concentrations of tunicamycin)
O=C(CC1NCCCC1O)Cn1cnc2cc(Br)c(Cl)cc2c1=O (racemic) [HF, halofuginone] | no direct effect | > 20 | did not affect | did not affect | did not affect | failed to modulate | much slower | reversed by the addition of proline | reduced TGF-beta-stimulated Smad2 phosphorylation | 
tunicamycin |  |  |  |  |  |  |  |  |  | preferentially impaired Th1 and Th2 differentiation
